Experimental data from patent US9415055B2, “Cyclic amines” (H. Lundbeck A/S, priority 2012, dated 2016).

Target: P2X7 receptor (Homo sapiens (Human), UniProt Q99572)
Assay: P2X7 FLIPR assay: antagonism of BzATP response in 293 HEK cells stably expressing P2X7 receptor
Format: cell-based
Conditions: FLIPR fluorescence (Fluo-4), agonist BzATP, 293 HEK cells stably transfected with P2X7 receptor
How it was run: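 Antagonist IC50 derived from FLIPR Tetra Fluo-4 calcium signal evoked by BzATP. Compound pre-incubation was 30 min at room temperature on P2X7-expressing HEK293 cells, seeded 24 h before in low-serum medium and dye-loaded 30 min at 37 °C then 30 min at RT.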

P2X7 receptor, sequence (Q99572 whole entry): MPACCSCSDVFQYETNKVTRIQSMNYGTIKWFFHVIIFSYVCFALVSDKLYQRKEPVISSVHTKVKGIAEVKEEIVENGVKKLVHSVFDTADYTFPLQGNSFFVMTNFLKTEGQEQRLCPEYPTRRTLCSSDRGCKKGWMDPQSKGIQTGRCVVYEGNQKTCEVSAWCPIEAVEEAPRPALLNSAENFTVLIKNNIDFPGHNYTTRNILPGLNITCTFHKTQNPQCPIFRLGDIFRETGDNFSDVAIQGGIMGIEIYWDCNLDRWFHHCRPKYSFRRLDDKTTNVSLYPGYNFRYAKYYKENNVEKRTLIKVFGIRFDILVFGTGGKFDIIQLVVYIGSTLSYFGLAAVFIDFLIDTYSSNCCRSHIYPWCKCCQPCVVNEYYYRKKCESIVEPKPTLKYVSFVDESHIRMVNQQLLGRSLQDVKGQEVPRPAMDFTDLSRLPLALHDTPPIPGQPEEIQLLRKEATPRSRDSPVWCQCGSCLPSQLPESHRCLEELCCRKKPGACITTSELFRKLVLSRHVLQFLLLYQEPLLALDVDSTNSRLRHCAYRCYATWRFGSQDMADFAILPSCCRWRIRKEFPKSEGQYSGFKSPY

Row | SMILES | IC50
1 | O=C(NCC(c1cnc(C(F)(F)F)nc1)N1CCC(F)CC1)c1c(Cl)cccc1Cl (single isomer, unassigned; (-)) [(−)2,6-dichloro-N-[2-(4-fluoro-1-piperidyl)-2-[2-(trifluorom] [(−)2,6-dichloro-N-(2-(4-fluoropiperidin-1-yl)-2-(2-(trifluoromethyl)pyrimidin-5-yl)ethyl)benzamide] | 15 nM
2 | O=C(NCC(c1cnc(C2CC2)nc1)N1CCC(F)(F)CC1)c1c(Cl)cccc1Cl (single isomer, unassigned; (+)) [(+)2,6-dichloro-N-(2-(2-cyclopropylpyrimidin-5-yl)-2-(4,4-difluoropiperidin-1-yl)ethyl)benzamide] | 5.3 nM
3 | COc1ccc(C(=O)NCC(c2cnc(C(F)(F)F)nc2)N2CCC(F)(F)CC2)c(Cl)c1OC (single isomer, unassigned; (+)) [(+)2-chloro-N-[2-(4,4-difluoro-1-piperidyl)-2-[2-(trifluorom] [(+)2-chloro-3,4-dimethoxy-N-(2-(4,4-difluoropiperidin-1-yl)-2-(2-(trifluoromethyl)pyrimidin-5-yl)ethyl)benzamide] | 14 nM
4 | O=C(NCC(c1cnc(C(F)(F)F)nc1)N1CCC(F)(F)CC1)c1cccc(F)c1Cl (single isomer, unassigned; (+)) [(+)2-chloro-N-[2-(4,4-difluoro-1-piperidyl)-2-[2-(trifluorom] [(+)2-chloro-N-(2-(4,4-difluoropiperidin-1-yl)-2-(2-(trifluoromethyl)pyrimidin-5-yl)ethyl)-3-fluorobenzamide] | 1.7 nM
5 | Cn1cc(C(CNC(=O)c2ccccc2Cl)N2CCC(F)(F)CC2)cn1 (single isomer, unassigned; (+)) [(+)2-chloro-N-[2-(4,4-difluoro-1-piperidyl)-2-(1-methylpyraz] [(+)2-chloro-N-(2-(4,4-difluoropiperidin-1-yl)-2-(1-methyl-1H-pyrazol-4-yl)ethyl)benzamide] | 180 nM
6 | Cc1ncc(C(CNC(=O)c2ccccc2Cl)N2CCOCC2)cn1 (single isomer, unassigned; (+)) [(+)2-chloro-N-[2-(2-methylpyrimidin-5-yl)-2-morpholino-ethyl] [(+)2-chloro-N-(2-(2-methylpyrimidin-5-yl)-2-morpholinoethyl)benzamide] | 630 nM

Other lines, results leading:

Row | IC50 | SMILES
7 | 7.6 nM | O=C(NCC(c1cnc(C2CC2)nc1)N1CCC(F)(F)CC1)c1ccccc1Cl (single isomer, unassigned; (-)) [(−)2-chloro-N-[2-(2-cyclopropylpyrimidin-5-yl)-2-(4,4-difluo] [(−)2-chloro-N-(2-(2-cyclopropylpyrimidin-5-yl)-2-(4,4-difluoropiperidin-1-yl)ethyl)benzamide]
8 | 3900 nM | COc1ccc(C(CNC(=O)c2ccccc2C)N2CCCCC2)cc1 (centres unmarked) [N-[2-(4-Methoxy-phenyl)-2-piperidin-1-yl-ethyl]-2-methyl-benzamide]
9 | 8.2 nM | COc1cccc(C(=O)NCC(c2cnc(C(F)(F)F)nc2)N2CCOCC2)c1Cl (single isomer, unassigned; (-)) [(−)2-chloro-3-methoxy-N-[2-morpholino-2-[2-(trifluoromethyl)] [(−)2-chloro-3-methoxy-N-(2-morpholino-2-(2-(trifluoromethyl)pyrimidin-5-yl)ethyl)benzamide]
10 | 28 nM | Cc1ncc(C(CNC(=O)c2ccccc2Cl)N2CCCC(F)(F)C2)cn1 (single isomer, unassigned; (-)) [(−)2-chloro-N-[2-(3,3-difluoro-1-piperidyl)-2-(2-methylpyrim] [(−)2-chloro-N-(2-(3,3-difluoropiperidin-1-yl)-2-(2-methylpyrimidin-5-yl)ethyl)benzamide]
11 | 110 nM | Cc1ncc(C(CNC(=O)c2ccccc2Cl)N2CCOCC2)cn1 (single isomer, unassigned; (-)) [(−)2-chloro-N-[2-(2-methylpyrimidin-5-yl)-2-morpholino-ethyl] [(−)2-chloro-N-(2-(2-methylpyrimidin-5-yl)-2-morpholinoethyl)benzamide]
